Measurements published in US20160143944A1, “ANTIMICROBIAL COMPOSITIONS COMPRISING HYPOCHLOROUS ACID AND SILVER” (PURICOE, INC., priority 2013, published 2016).

Tested on: Pseudomonas aeruginosa biofilm
Experiment: in vitro wound biofilm model (collagen matrix), biocidal effect
Assay type: cell-based
Settings: 20 min at 35° C., 24 h biofilm in collagen matrix
Description: A biofilm test was conducted using hypochlorous acid solutions containing either 200 ppm or 600 ppm AFC. A solution containing a […] combination of silver chelate (30 ppm) and hypochlorous acid (600 ppm) which yielded a final concentration of 200 ppm AFC was also tested. Specifically, the biocidal effects of the solutions were tested using an in vitro wound biofilm model as described in […] et al. (2009), Molnlycke Healthcare. Briefly, a collagen solution was prepared in simulated wound fluid and the collagen was allowed to polymerize at 35° C. for one hour. The collagen matrix was subsequently innoculated with approximately 10^4 colony forming units (CFU) of Pseudomonas aeruginosa and incubated for twenty-four hours. The hypochlorous acid solutions were added to each matrix and incubated at 35° C. for twenty minutes. The tubes were centrifuged to separate the test solutions from the matrices. Subsequently, each matrix was digested with collagenase, washed and any surviving cells were recovered. A biofilm test was conducted to compare the biocidal effects of various hypochlorous acid solutions with or without silver additives, either in form of potassium silver citrate or silver chelate. Specifically, the effects of the solutions on P. aeruginosa biofilm were assessed using an in vitro wound biofilm model as described above. […]

OCl [hypochlorous acid solution, hypochlorous acid]
log reduction of P. aeruginosa colony forming units (CFU) (200 ppm AFC hypochlorous acid solution): one
log reduction of P. aeruginosa colony forming units (CFU) (600 ppm AFC hypochlorous acid solution): seven
